The record followed here is US20250163061A1 (Bala Therapeutics, Inc., priority 2021, published 2025).

Common to all, as to format: cell-based
One series concerns MOLM-13. The series can be described thus: MOLM-13 cellular growth inhibition assay (CellTiter-Glo). The following applies: Homo sapiens, 168 h, MOLM-13 cells, 7 days of incubation. The protocol:
(§1) HEK293 (Institute of Cytology Russian Academy of Science), MV4-11 (ATCC, CRL-9591), MOLM-13 (AcceGen, ABC-TC517S) were seeded at a density of 500 cells per well (HEK293) and 2000 cells per well (MV4-11, MOLM-13) in a 384-well clear bottom plate (Greiner Cat #781090) in 45 μl total volume of DMEM (PanEco, Cat #C420, Russia) or RPMI (PanEco, Cat #C330, Russia) with 10% FBS (HyClone Cat #SV30160.03). HEK293 were allowed to adhere overnight at 37° C., 5% CO2. 500× compounds solutions in DMSO (Sigma Cat #D2650) were prepared into Cmpnds plate (Diamond Well Plate, Axigen, Cat #P-384-120SQ-C-S) and DMSO only control was included. 1 μl of 500× compounds (Cmpnds plate) was added to 49 μl of culture medium into Dilution plate (Diamond Well Plate, Axigen, Cat #P-384-120SQ-C-S), mixed and then 5 μl of 10× compounds solutions were transferred to cells followed by centrifugation at 100 g for 1 min. Final DMSO concentration was 0.2%. After 3 days of incubation, 10 μl of 1× compounds were added to cells. After 7 days of incubation, 12 μl of CellTiter-Glo (Promega, CAT #G7572) were added to the cells, plate was centrifuged at 100 g for 1 min and luminescence signal was measured using Microplate Reader (CLARIOStar).
(In general: ATP-based viability assays read luminescence as a measure of living cells.)

A further series relates to MV4-11. In words: MV4-11 cellular growth inhibition assay (CellTiter-Glo). Conditions: Homo sapiens, 168 h, MV4-11 cells, 7 days of incubation. As for the experimental part: as §1
Series [1] is described as follows: HEK293 cellular growth inhibition assay (CellTiter-Glo). Conditions: human, HEK293 cells, 7 days of incubation. The protocol: as §1

Structures are written as SMILES. Some results are limits rather than exact numbers.

With `Cc1c(CN2CCC3(CC2)CN(c2ncnc4ccc(CC(F)(F)F)cc24)C3)ccc2[nH]c(C#N)cc12` [Compound 68, 4-Methyl-5-({2-[6-(2,2,2-trifluoroethyl)quinazolin-4-yl]-2,7-diazaspiro[3.5]non-7-yl}methyl)-1H-indole-2-carbonitrile], the CC50 with MOLM-13 is 500 to 1000 nM; with MV4-11 it was 100 to 500 nM. In addition, the CC50 at 7 days in series [1] fell in the range of 2000 to 5000 nM.
Consider `C=CC(=O)N1CCN(C(C)Cn2c(C#N)cc3c(C)c(CN4CCC5(CC4)CN(c4ncnc6ccc(CC(F)(F)F)cc46)C5)ccc32)CC1` (centres unmarked) [Compound 63, 1-[2-(4-Acryloylpiperazin-1-yl)propyl]-4-methyl-5-({2-[6-(2,2,2-trifluoroethyl)quinazolin-4-yl]-2,7-diazaspiro[3.5]non-7-yl}methyl)-1H-indole-2-carbonitrile], for which the CC50 in the series on MOLM-13 and in the series with MV4-11 was 100 to 500 nM in each case. Besides, in series [1], the CC50 at 7 days was in the range of 2000 to 5000 nM.
For the molecule `CN(C)C/C=C/C(=O)N1CCN(CCn2c(C#N)cc3cc(CN4CCC5(CC4)CN(c4ncnc6ccc(CC(F)(F)F)cc46)C5)ccc32)CC1` [Compound 99], the CC50 with MOLM-13 and with MV4-11 was 1000 to 5000 nM throughout. Besides, the CC50 at 7 days in series [1] is at most 2000 nM.
On to `Cc1c(CN2CCC3(CC2)CN(c2ncnc4ccc(CC(F)(F)F)cc24)C3)ccc2c1cc(C#N)n2C[C@H]1CC[C@H](NS(C)(=O)=O)CC1` [Compound 40, N-(trans-4-{[2-Cyano-4-methyl-5-({2-[6-(2,2,2-trifluoroethyl)quinazolin-4-yl]-2,7-diazaspiro[3.5]non-7-yl}methyl)-1H-indol-1-yl]methyl}cyclohexyl)methanesulfonamide], for which the figures for the CC50 with MOLM-13 and in the series with MV4-11 were 1000 to 5000 nM and 100 to 500 nM, respectively. In series [1], this molecule yielded a CC50 at 7 days of 10000 to 20000 nM.
As for `CCCCS(=O)(=O)N1CCCN(C(C)Cn2c(C#N)cc3c(C)c(CN4CCC5(CC4)CN(c4ncnc6ccc(CC(F)(F)F)cc46)C5)ccc32)CC1` (centres unmarked) [Compound 73, 1-{2-[4-(Butylsulfonyl)-1,4-diazepan-1-yl]propyl}-4-methyl-5-({2-[6-(2,2,2-trifluoroethyl)quinazolin-4-yl]-2,7-diazaspiro[3.5]non-7-yl}methyl)-1H-indole-2-carbonitrile], the CC50 with MOLM-13 was 500 to 1000 nM; in the series on MV4-11 it was at most 100 nM. The molecule further displayed a cytotoxic concentration (CC50) at 7 days in series [1] above 20000 nM.
With `CS(=O)(=O)N1CCN(CCn2c(C#N)cc3cc(CN4CCC5(CC4)CN(c4ncnc6ccc(CC(F)(F)F)cc46)C5)ccc32)CC1` [Compound 91, 1-{2-[4-(Methylsulfonyl)piperazin-1-yl]ethyl}-5-({2-[6-(2,2,2-trifluoroethyl)quinazolin-4-yl]-2,7-diazaspiro[3.5]non-7-yl}methyl)-1H-indole-2-carbonitrile], the CC50 in the series with MOLM-13 is 1000 to 5000 nM; in the series on MV4-11, 500 to 1000 nM. In series [1], this molecule returned a CC50 at 7 days of 5000 to 10000 nM.
On to `C=CC(=O)N1CCN(CCCn2c(C#N)cc3c(C)c(CN4CCC5(CC4)CN(c4ncnc6ccc(CC(F)(F)F)cc46)C5)ccc32)CC1` [Compound 66, 4-methyl-1-[3-(4-prop-2-enoylpiperazin-1-yl)propyl]-5-[[2-[6-(2,2,2-trifluoroethyl)quinazolin-4-yl]-2,7-diazaspiro[3.5]nonan-7-yl]methyl]indole-2-carbonitrile], for which the CC50 with MOLM-13 and in the series with MV4-11 was 100 to 500 nM each time. In series [1], the half-maximal cytotoxic concentration (CC50) at 7 days was in the range of 2000 to 5000 nM.
Turning to `C=CC(=O)N1CCN(CCCCn2c(C#N)cc3c(C)c(CN4CCC5(CC4)CN(c4ncnc6ccc(CC(F)(F)F)cc46)C5)ccc32)CC1` [Compound 65, 1-[4-(4-Acryloylpiperazin-1-yl)butyl]-4-methyl-5-({2-[6-(2,2,2-trifluoroethyl)quinazolin-4-yl]-2,7-diazaspiro[3.5]non-7-yl}methyl)-1H-indole-2-carbonitrile], the CC50 with MOLM-13 was 1000 to 5000 nM; in the series on MV4-11, 100 to 500 nM. This molecule also yielded a CC50 at 7 days in series [1] of at most 2000 nM.
Consider `Cc1c(CN2CCC3(CC2)CN(c2ncnc4ccc(CC(F)(F)F)cc24)C3)ccc2c1cc(C#N)n2CC12CC(NC=O)(C1)C2` [Compound 95, (3-{[2-Cyano-4-methyl-5-({2-[6-(2,2,2-trifluoroethyl)quinazolin-4-yl]-2,7-diazaspiro[3.5]non-7-yl}methyl)-1H-indol-1-yl]methyl}bicyclo[1.1.1]pent-1-yl)formamide], for which the CC50 in the series on MOLM-13 is 100 to 500 nM; in the series on MV4-11 it was at most 100 nM. In addition, in series [1], the CC50 at 7 days was 2000 to 5000 nM.
On to `Cc1c(CN2CCC3(CC2)CN(c2ncnc4ccc(CC(F)(F)F)cc24)C3)ccc2c1cc(C#N)n2CC1CNC(=O)C1` (centres unmarked) [Compound 51, 4-Methyl-1-[(5-oxopyrrolidin-3-yl)methyl]-5-({2-[6-(2,2,2-trifluoroethyl)quinazolin-4-yl]-2,7-diazaspiro[3.5]non-7-yl}methyl)-1H-indole-2-carbonitrile], for which the CC50 lay within 1000 to 5000 nM in the series with MOLM-13 and 100 to 500 nM with MV4-11. Further, the cytotoxic concentration (CC50) at 7 days in series [1] lay in the range of 2000 to 5000 nM.
Regarding `Cc1c(CN2CCC3(CC2)CN(c2ncnc4ccc(CC(F)(F)F)cc24)C3)ccc2c1cc(C#N)n2CC1CCNC(=O)CO1` (centres unmarked) [Compound 2, 4-Methyl-1-[(3-oxo-1,4-oxazepan-7-yl)methyl]-5-[[2-[6-(2,2,2-trifluoroethyl)quinazolin-4-yl]-2,7-diazaspiro[3.5]nonan-7-yl]methyl]indole-2-carbonitrile], the CC50 fell in the range of 1000 to 5000 nM in the series on MOLM-13 and 100 to 500 nM with MV4-11. The same molecule came in with a CC50 at 7 days in series [1] of 2000 to 5000 nM.
For `Cc1c(CN2CCC3(CC2)CN(c2ncnc4ccc(CC(F)(F)F)cc24)C3)ccc2c1cc(C#N)n2C[C@@H]1CNC(=O)CO1` [Compound 102, 4-Methyl-1-{[(2S)-5-oxomorpholin-2-yl]methyl}-5-({2-[6-(2,2,2-trifluoroethyl)quinazolin-4-yl]-2,7-diazaspiro[3.5]non-7-yl}methyl)-1H-indole-2-carbonitrile], the values for the CC50 in the series on MOLM-13 and in the series with MV4-11 were 100 to 500 nM and at most 100 nM, respectively. The molecule also returned a CC50 at 7 days in series [1] of at most 2000 nM.
For `Cc1c(CN2CCC3(CC2)CN(c2ncnc4ccc(CC(F)(F)F)cc24)C3)ccc2c1cc(C#N)n2CC1CCNC(=O)CC1` (centres unmarked) [Compound 5, 4-Methyl-1-[(7-oxoazepan-4-yl)methyl]-5-[[2-[6-(2,2,2-trifluoroethyl)quinazolin-4-yl]-2,7-diazaspiro[3.5]nonan-7-yl]methyl]indole-2-carbonitrile], in that order: 500 to 1000 nM, 100 to 500 nM and at most 2000 nM.
As to `COc1cc2c(cc1CN1CCC3(CC1)CN(c1ncnc4ccc(CC(F)(F)F)cc14)C3)cc(C#N)n2CC(C)N1CCN(S(C)(=O)=O)CC1` (centres unmarked) [Compound 20, 6-Methoxy-1-{2-[4-(methylsulfonyl)piperazin-1-yl]propyl}-5-({2-[6-(2,2,2-trifluoroethyl)quinazolin-4-yl]-2,7-diazaspiro[3.5]non-7-yl}methyl)-1H-indole-2-carbonitrile], the CC50 in the series on MOLM-13 was 1000 to 5000 nM; in the series with MV4-11, 100 to 500 nM. Further, the CC50 at 7 days in series [1] was 2000 to 5000 nM.
On to `Cc1c(CN2CCC3(CC2)CN(c2ncnc4ccc(CC(F)(F)F)cc24)C3)ccc2c1cc(C#N)n2CC1CNC(=O)NC1` [Compound 4, 4-Methyl-1-[(2-oxohexahydropyrimidin-5-yl)methyl]-5-[[2-[6-(2,2,2-trifluoroethyl)quinazolin-4-yl]-2,7-diazaspiro[3.5]nonan-7-yl]methyl]indole-2-carbonitrile], for which the CC50 in the series on MOLM-13 lay within 500 to 1000 nM; in the series with MV4-11, 100 to 500 nM.

A word on the CC50: it is the concentration giving 50% cytotoxicity. Low readings indicate harm at low concentration, high ones better tolerance by the cells.
